Measurements reported in patent publication US9353107B2 (Aurigene Discovery Technologies Limited, priority 2012, dated 2016).

Target: T1, recombinant human ALK enzyme (ALK WT) (Homo sapiens, UniProt Q9UM73)
T1 construct: purchased Carna Biosciences 08-518
Assay: ALK WT cell free enzymatic assay (TR-FRET)
Type: biochemical
Details: 1 μM ATP; for IC50: 10 point dose response; for inhibition at 0.1 µM: compound at 100 nM; for inhibition at 0.1 µM / inhibition at 1 µM: 30 min pre-incubation; for inhibition at 1 µM: compound at 1 μM
In short: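 Read-out is TR-FRET (665 nm/615 nm ratio) using an Eu-labeled anti-phosphotyrosine antibody. Compound is pre-incubated 30 min with recombinant human ALK, then reacted 30 min with 1 μM ATP and 40 nM Poly GT substrate. Values are percent inhibition at 100 nM and 1 μM, plus IC50 from 10-point variable-slope regression.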

T1 sequence (Q9UM73 1058-1620 limits assumed): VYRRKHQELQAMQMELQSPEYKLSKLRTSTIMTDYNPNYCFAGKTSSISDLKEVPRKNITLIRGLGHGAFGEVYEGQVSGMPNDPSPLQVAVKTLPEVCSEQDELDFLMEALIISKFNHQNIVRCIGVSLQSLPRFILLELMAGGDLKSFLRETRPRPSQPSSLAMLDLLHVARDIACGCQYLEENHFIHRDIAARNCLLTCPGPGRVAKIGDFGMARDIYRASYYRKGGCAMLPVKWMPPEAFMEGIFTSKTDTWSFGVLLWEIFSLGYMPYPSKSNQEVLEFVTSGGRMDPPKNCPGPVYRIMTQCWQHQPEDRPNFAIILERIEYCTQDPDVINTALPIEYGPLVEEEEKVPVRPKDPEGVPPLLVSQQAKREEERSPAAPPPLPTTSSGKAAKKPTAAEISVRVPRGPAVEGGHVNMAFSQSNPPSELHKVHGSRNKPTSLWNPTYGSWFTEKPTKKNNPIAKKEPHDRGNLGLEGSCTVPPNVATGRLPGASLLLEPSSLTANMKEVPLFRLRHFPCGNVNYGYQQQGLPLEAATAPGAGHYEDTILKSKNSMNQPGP

| SMILES | IC50 [nM] | inhibition at 0.1 µM [%] | inhibition at 1 µM [%] |
| --- | --- | --- | --- |
| CN(C)CC(=O)N1CCN(c2ccc(-c3cnc4[nH]cc(-c5cnn(Cc6cccc(F)c6)c5)c4c3)cc2)CC1 [Example 127, 2-(dimethylamino)-1-(4-(4-(3-(1-(3-fluorobenzyl)-1H-pyrazol-4-yl)-1H-pyrrolo[2,3-b]pyridin-5-yl)phenyl)piperazin-1-yl)ethanone] | < 50 | 96 | 97 |
| O=C(CO)N1CCN(c2ccc(-c3cnc4[nH]cc(-c5cnn(Cc6cccc(F)c6)c5)c4c3)cc2)CC1 [Example 128, 1-(4-(4-(3-(1-(3-fluorobenzyl)-1H-pyrazol-4-yl)-1H-pyrrolo[2,3-b]pyridin-5-yl)phenyl)piperazin-1-yl)-2-hydroxyethanone] | < 50 | 92 | 94 |
| Cc1nn(Cc2cccc(F)c2)cc1-c1c[nH]c2ncc(-c3ccc(N4CCN(C[C@H](C)O)CC4)cc3)cc12 [Example 130, (S)-1-(4-(4-(3-(1-(3-fluorobenzyl)-3-methyl-1H-pyrazol-4-yl)-1H-pyrrolo[2,3-b]pyridin-5-yl)phenyl)piperazin-1-yl)propan-2-ol] | < 50 | 88 | 99 |
| c1cncc(Cn2cc(-c3c[nH]c4ncc(-c5ccc(N6CCNCC6)cc5)cc34)cn2)c1 [Example 131, 5-(4-(piperazin-1-yl)phenyl)-3-(1-(pyridin-3-ylmethyl)-1H-pyrazol-4-yl)-1H-pyrrolo[2,3-b]pyridine] | < 50 | 83 | 99 |
| CN1CCN(c2ccc(-c3cnc4[nH]cc(-c5cnn(Cc6cccc(F)c6)c5)c4c3)cn2)CC1 [Example 137, 3-(1-(3-fluorobenzyl)-1H-pyrazol-4-yl)-5-(6-(4-methylpiperazin-1-yl)pyridin-3-yl)-1H-pyrrolo[2,3-b]pyridine] | < 50 | 99 | 100 |
| C[C@H](O)CN1CCN(c2ccc(-c3cnc4[nH]cc(-c5cnn(Cc6cccc(F)c6)c5)c4c3)cn2)CC1 [Example 138, (S)-1-(4-(5-(3-(1-(3-fluorobenzyl)-1H-pyrazol-4-yl)-1H-pyrrolo[2,3-b]pyridin-5-yl)pyridin-2-yl)piperazin-1-yl)propan-2-ol] | < 50 | 100 | 100 |
| c1ccc(CCn2cc(-c3c[nH]c4ncc(-c5ccc(N6CCNCC6)nc5)cc34)cn2)cc1 [Example 140, 3-(1-phenethyl-1H-pyrazol-4-yl)-5-(6-(piperazin-1-yl)pyridin-3-yl)-1H-pyrrolo[2,3-b]pyridine] | < 50 | 80 | 95 |
| Cc1cccc(Cn2cc(-c3c[nH]c4ncc(-c5ccc(N6CCN(C[C@H](C)O)CC6)nc5)cc34)cn2)c1 [Example 145, (S)-1-(4-(5-(3-(1-(3-methylbenzyl)-1H-pyrazol-4-yl)-1H-pyrrolo[2,3-b]pyridin-5-yl)pyridin-2-yl)piperazin-1-yl)propan-2-ol] | < 50 | 83 | 99 |
| C[C@H](O)CN1CCN(c2ccc(-c3cnc4[nH]cc(-c5cnn(Cc6cccc(F)c6)c5)c4c3)nc2)CC1 [Example 146, (S)-1-(4-(6-(3-(1-(3-fluorobenzyl)-1H-pyrazol-4-yl)-1H-pyrrolo[2,3-b]pyridin-5-yl)pyridin-3-yl)piperazin-1-yl)propan-2-ol] | 50 to 250 | 60 | 97 |
| CN(C)CC(=O)N1CCN(c2ccc(-c3cnc4[nH]cc(-c5cnn(Cc6cccc(F)c6)c5)c4c3)cn2)CC1 [Example 147, 2-(dimethylamino)-1-(4-(5-(3-(1-(3-fluorobenzyl)-1H-pyrazol-4-yl)-1H-pyrrolo[2,3-b]pyridin-5-yl)pyridin-2-yl)piperazin-1-yl)ethanone] | < 50 | 99 | 100 |
| C[C@H](O)CN1CCN(c2ccc(-c3cnc4[nH]cc(-c5cnn(Cc6ccccc6)c5)c4c3)cn2)CC1 [Example 148, (S)-1-(4-(5-(3-(1-benzyl-1H-pyrazol-4-yl)-1H-pyrrolo[2,3-b]pyridin-5-yl)pyridin-2-yl)piperazin-1-yl)propan-2-ol] | < 50 | 94 | 100 |
| COCCN1CCN(c2ccc(-c3cnc4[nH]cc(-c5cnn(Cc6cccc(F)c6)c5)c4c3)cn2)CC1 [Example 149, 3-(1-(3-fluorobenzyl)-1H-pyrazol-4-yl)-5-(6-(4-(2-methoxyethyl)piperazin-1-yl)pyridin-3-yl)-1H-pyrrolo[2,3-b]pyridine] | < 50 | 95 | 100 |
| N#CCN1CCN(c2ccc(-c3cnc4[nH]cc(-c5cnn(Cc6cccc(F)c6)c5)c4c3)cn2)CC1 [Example 150, 2-(4-(5-(3-(1-(3-fluorobenzyl)-1H-pyrazol-4-yl)-1H-pyrrolo[2,3-b]pyridin-5-yl)pyridin-2-yl)piperazin-1-yl)acetonitrile] | < 50 | 92 | 100 |
| C[C@H](O)CN1CCN(c2ccc(-c3cnc4[nH]cc(-c5cnn(Cc6cccc(O)c6)c5)c4c3)cn2)CC1 [Example 151, (S)-3-((4-(5-(6-(4-(2-hydroxypropyl)piperazin-1-yl)pyridin-3-yl)-1H-pyrrolo[2,3-b]pyridin-3-yl)-1H-pyrazol-1-yl)methyl)phenol] | < 50 | 92 | 97 |

The remaining lines, values ahead:

| IC50 [nM] | inhibition at 0.1 µM [%] | inhibition at 1 µM [%] | SMILES |
| --- | --- | --- | --- |
| < 50 | 96 | 99 | Cc1c(-c2c[nH]c3ncc(-c4ccc(N5CCN(C[C@H](C)O)CC5)cc4)cc23)cnn1Cc1cccc(F)c1 [Example 129, (S)-1-(4-(4-(3-(1-(3-fluorobenzyl)-5-methyl-1H-pyrazol-4-yl)-1H-pyrrolo[2,3-b]pyridin-5-yl)phenyl)piperazin-1-yl)propan-2-ol] |
| < 50 | 100 | 100 | Fc1cccc(Cn2cc(-c3c[nH]c4ncc(-c5ccc(N6CCNCC6)nc5)cc34)cn2)c1 [Example 132, 3-(1-(3-fluorobenzyl)-1H-pyrazol-4-yl)-5-(6-(piperazin-1-yl)pyridin-3-yl)-1H-pyrrolo[2,3-b]pyridine] |
| < 50 | 97 | 100 | CN1CCN(c2ccc(-c3cnc4[nH]cc(-c5cnn(Cc6cc(F)cc(F)c6)c5)c4c3)cn2)CC1 [Example 133, 3-(1-(3,5-difluorobenzyl)-1H-pyrazol-4-yl)-5-(6-(4-methylpiperazin-1-yl)pyridin-3-yl)-1H-pyrrolo[2,3-b]pyridine] |
| < 50 | 97 | 100 | Fc1cc(F)cc(Cn2cc(-c3c[nH]c4ncc(-c5ccc(N6CCNCC6)nc5)cc34)cn2)c1 [Example 134, 3-(1-(3,5-difluorobenzyl)-1H-pyrazol-4-yl)-5-(6-(piperazin-1-yl)pyridin-3-yl)-1H-pyrrolo[2,3-b]pyridine] |
| < 50 | 95 | 100 | C[C@H](O)CN1CCN(c2ccc(-c3cnc4[nH]cc(-c5cnn(Cc6cc(F)cc(F)c6)c5)c4c3)cn2)CC1 [Example 135, (S)-1-(4-(5-(3-(1-(3,5-difluorobenzyl)-1H-pyrazol-4-yl)-1H-pyrrolo[2,3-b]pyridin-5-yl)pyridin-2-yl)piperazin-1-yl)propan-2-ol] |
| < 50 | 97 | 99 | NC(=O)CN1CCN(c2ccc(-c3cnc4[nH]cc(-c5cnn(Cc6cc(F)cc(F)c6)c5)c4c3)cn2)CC1 [Example 136, 2-(4-(5-(3-(1-(3,5-difluorobenzyl)-1H-pyrazol-4-yl)-1H-pyrrolo[2,3-b]pyridin-5-yl)pyridin-2-yl)piperazin-1-yl)acetamide] |
| < 50 | 99 | 100 | NC(=O)CN1CCN(c2ccc(-c3cnc4[nH]cc(-c5cnn(Cc6cccc(F)c6)c5)c4c3)cn2)CC1 [Example 139, 2-(4-(5-(3-(1-(3-fluorobenzyl)-1H-pyrazol-4-yl)-1H-pyrrolo[2,3-b]pyridin-5-yl)pyridin-2-yl)piperazin-1-yl)acetamide] |
| < 50 | 58 | 96 | CN1CCN(c2ccc(-c3cnc4[nH]cc(-c5cnn(CCc6ccccc6)c5)c4c3)cn2)CC1 [Example 141, 5-(6-(4-methylpiperazin-1-yl)pyridin-3-yl)-3-(1-phenethyl-1H-pyrazol-4-yl)-1H-pyrrolo[2,3-b]pyridine] |
| – | 94 | 100 | OCCN1CCN(c2ccc(-c3cnc4[nH]cc(-c5cnn(Cc6cccc(F)c6)c5)c4c3)cn2)CC1 [Example 142, 2-(4-(5-(3-(1-(3-fluorobenzyl)-1H-pyrazol-4-yl)-1H-pyrrolo[2,3-b]pyridin-5-yl)pyridin-2-yl)piperazin-1-yl)ethanol] |
| – | 60 | 98 | C[C@H](O)CN1CCN(c2ccc(-c3cnc4[nH]cc(-c5cnn(CCc6ccccc6)c5)c4c3)cn2)CC1 [Example 143, (S)-1-(4-(5-(3-(1-phenethyl-1H-pyrazol-4-yl)-1H-pyrrolo[2,3-b]pyridin-5-yl)pyridin-2-yl)piperazin-1-yl)propan-2-ol] |
| < 50 | 76 | 94 | COc1nc(N2CCN(C[C@H](C)O)CC2)ccc1-c1cnc2[nH]cc(-c3cnn(Cc4cccc(F)c4)c3)c2c1 [Example 144, (S)-1-(4-(5-(3-(1-(3-fluorobenzyl)-1H-pyrazol-4-yl)-1H-pyrrolo[2,3-b]pyridin-5-yl)-6-methoxypyridin-2-yl)piperazin-1-yl)propan-2-ol] |
